# Source: patent US8003785B2 (Takeda Pharmaceutical Company Limited, priority 2008, dated 2011)
# Biological target: T1, PLK1 (Homo sapiens, UniProt P53350)
# T1 construct: Full-length, active GST-PLK1 is purified from Sf9 insect cells; made in house; host or cells: Sf9 insect cells
# Experiment: Biochemical Characterization Assay: HTRF kinase assay, GST-PLK1 phosphorylation of GST-p53
# Conditions: GST-PLK1, GST-p53 substrate
# Method in brief: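 HTRF read-out of p53 phosphorylation: after EDTA stop, anti-phospho-p53 antibody bound 30 min at 37 °C in HEPES pH 7 buffer, with Eu-anti-rabbit/APC-anti-GST detection. Kinase step used full-length Sf9-expressed GST-PLK1 (3 ug/mL) and E. coli GST-p53 substrate, 35 min at 37 °C.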
# T1 sequence (P53350 whole entry): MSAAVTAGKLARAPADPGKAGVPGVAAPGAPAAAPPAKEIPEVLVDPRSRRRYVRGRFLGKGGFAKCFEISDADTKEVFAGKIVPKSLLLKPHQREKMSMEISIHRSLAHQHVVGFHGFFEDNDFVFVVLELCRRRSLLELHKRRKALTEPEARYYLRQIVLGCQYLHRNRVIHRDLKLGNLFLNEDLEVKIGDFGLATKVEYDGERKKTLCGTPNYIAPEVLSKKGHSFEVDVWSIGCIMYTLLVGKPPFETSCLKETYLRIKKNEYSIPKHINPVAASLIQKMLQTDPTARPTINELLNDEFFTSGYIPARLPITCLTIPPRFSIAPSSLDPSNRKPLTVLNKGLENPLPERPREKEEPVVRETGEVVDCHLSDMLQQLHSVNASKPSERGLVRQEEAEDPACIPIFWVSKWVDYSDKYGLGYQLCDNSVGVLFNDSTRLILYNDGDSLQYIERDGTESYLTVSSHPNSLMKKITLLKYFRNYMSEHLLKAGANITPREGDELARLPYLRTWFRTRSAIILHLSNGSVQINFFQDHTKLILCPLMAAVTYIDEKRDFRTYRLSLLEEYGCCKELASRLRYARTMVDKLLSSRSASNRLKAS
row,IC50 [nM],Structure (SMILES)
1,1 to 50,"COc1cc(C(=O)N[C@H]2CC[C@@H](N3CCN(CC4CC4)CC3)CC2)ccc1Nc1ncc2c(n1)N(C(C)C)CC(F)(F)C(=O)N2C [Example I-301, N-[cis-4-(4-cyclopropylmethyl-piperazin-1-yl)-cyclohexyl]-4-(7,7-difluoro-9-isopropyl-5-methyl-6-oxo-6,7,8,9-tetrahydro-5H-pyrimido[4,5-b][1,4]diazepin-2-ylamino)-3-methoxy-benzamide]"
2,51 to 500,"COc1cc(C(=O)NC2CCN(C)CC2)ccc1Nc1ncc2c(n1)NCC(F)(F)C(=O)N2C [Example I-303, 4-(7,7-difluoro-5-methyl-6-oxo-6,7,8,9-tetrahydro-5H-pyrimido[4,5-b][1,4]diazepin-2-ylamino)-3-methoxy-N-(1-methyl-piperidin-4-yl)-benzamide]"

# The remaining lines, values behind:
row,Structure (SMILES),IC50 [nM]
1,"COc1cc(C(=O)N[C@H]2CC[C@H](N3CCN(CC4CC4)CC3)CC2)ccc1Nc1ncc2c(n1)N(C1CCCC1)CC(F)(F)C(=O)N2C [Example I-300, 4-(9-cyclopentyl-7,7-difluoro-5-methyl-6-oxo-6,7,8,9-tetrahydro-5H-pyrimido[4,5-b][1,4]diazepin-2-ylamino)-N-[trans-4-(4-cyclopropylmethyl-piperazin-1-yl)-cyclohexyl]-3-methoxy-benzamide]",1 to 50
2,"COc1cc(C(=O)N[C@H]2CC[C@H](N3CCN(CC4CC4)CC3)CC2)ccc1Nc1ncc2c(n1)N(C(C)C)CC(F)(F)C(=O)N2C [Example I-302, N-[trans-4-(4-cyclopropylmethyl-piperazin-1-yl)-cyclohexyl]-4-(7,7-difluoro-9-isopropyl-5-methyl-6-oxo-6,7,8,9-tetrahydro-5H-pyrimido[4,5-b][1,4]diazepin-2-ylamino)-3-methoxy-benzamide]",1 to 50
3,"COc1cc(C(=O)NC2CCN(C)CC2)ccc1Nc1ncc2c(n1)N(CCOc1ccccc1)CC(F)(F)C(=O)N2C [Example I-304, 4-[7,7-difluoro-5-methyl-6-oxo-9-(2-phenoxy-ethyl)-6,7,8,9-tetrahydro-5H-pyrimido[4,5-b][1,4]diazepin-2-ylamino]-3-methoxy-N-(1-methyl-piperidin-4-yl)-benzamide]",51 to 500
